Data taken from patent publication US11806342B2, “Diiodohydroxyquinoline for the treatment of clostridium difficile infection” (Purdue Research Foundation, priority 2019, dated 2023).
≈ marks a conversion by molar mass, not a printed value.

Legend:
Format in all cases: cell-based, Clostridium difficile
C. difficile ATCC 43598 = experiment: MIC and MBC, broth microdilution; conditions: Clostridioides difficile, ATCC43598, C. difficile ATCC 43598
Protocol: (§1) MIC50 and MIC90 are the minimum concentration of each agent that inhibited growth of 50% and 90% of the tested isolates, respectively. The minimum bactericidal concentration (MBC) of these drugs was tested by plating 5 μL from wells with no growth onto BHIS agar plates. The MBC was categorized as the lowest concentration that reduced bacterial growth by 99.9% MIC50 and MIC90 are the minimum concentration of each agent that inhibited the growth of 50% and 90% of the tested isolates, respectively. The minimum bactericidal concentration (MBC) of these drugs was tested by plating 5 μL from wells with no growth onto BHIS agar plates. The MBC was categorized as the lowest concentration that reduced bacterial growth by 99.9% [29-31].

C. difficile ATCC 700057 = experiment: MIC and MBC, broth microdilution; conditions: Clostridioides difficile, ATCC700057, C. difficile ATCC 700057
Protocol: as §1

C. difficile ATCC 9689 = experiment: MIC and MBC, broth microdilution; conditions: Clostridioides difficile, ATCC9689, C. difficile ATCC 9689; for MBC: read-out: MBC
Protocol: as §1

[1] = tested on: C. difficile ATCC BAA-1870; experiment: MIC and MBC, broth microdilution; conditions: Clostridioides difficile, ATCCBAA1870, C. difficile ATCC BAA-1870
Protocol: as §1

C. difficile HM-89 = experiment: MIC and MBC, broth microdilution; conditions: Clostridioides difficile, HM89, C. difficile HM-89
Protocol: as §1

C. difficile I1 = experiment: MIC and MBC, broth microdilution; conditions: Clostridioides difficile, C. difficile I1
Protocol: as §1

C. difficile I2 = experiment: MIC and MBC, broth microdilution; conditions: Clostridioides difficile, C. difficile I2
Protocol: as §1

C. difficile I4 = experiment: MIC and MBC, broth microdilution; conditions: Clostridioides difficile, C. difficile I4
Protocol: as §1

C. difficile NR-49277 [2] = experiment: MIC and MBC, broth microdilution; conditions: Clostridioides difficile, NR49277, C. difficile NR-49277
Protocol: as §1

C. difficile NR-49281 = experiment: MIC and MBC, broth microdilution; conditions: Clostridioides difficile, NR49281, C. difficile NR-49281
Protocol: as §1

C. difficile NR-49284 = experiment: MIC and MBC, broth microdilution; conditions: Clostridioides difficile, NR49284, C. difficile NR-49284
Protocol: as §1

C. difficile NR-49286 = experiment: MIC and MBC, broth microdilution; conditions: Clostridioides difficile, NR49286, C. difficile NR-49286
Protocol: as §1

C. difficile NR-49290 = experiment: MIC and MBC, broth microdilution; conditions: Clostridioides difficile, NR49290, C. difficile NR-49290; for MBC: read-out: MBC
Protocol: as §1

C. difficile P11 = experiment: MIC and MBC, broth microdilution; conditions: Clostridioides difficile, C. difficile P11; for MBC: read-out: MBC
Protocol: as §1

C. difficile P13 = experiment: MIC and MBC, broth microdilution; conditions: Clostridioides difficile, C. difficile P13; for MBC: read-out: MBC
Protocol: as §1

C. difficile P1 = experiment: MIC and MBC, broth microdilution; conditions: Clostridioides difficile, C. difficile P1
Protocol: as §1

C. difficile P24 = experiment: MIC and MBC, broth microdilution; conditions: Clostridioides difficile, C. difficile P24; for MBC: read-out: MBC
Protocol: as §1

C. difficile P2 = experiment: MIC and MBC, broth microdilution; conditions: Clostridioides difficile, C. difficile P2; for MBC: read-out: MBC
Protocol: as §1

C. difficile P7 = experiment: MIC and MBC, broth microdilution; conditions: Clostridioides difficile, C. difficile P7
Protocol: as §1

C. difficile P8 = experiment: MIC and MBC, broth microdilution; conditions: Clostridioides difficile, C. difficile P8
Protocol: as §1

C. difficile ATCC 43255 [3] = experiment: Toxin A and B production inhibition, ELISA; conditions: for inhibition of total toxin production: 8 hours
Protocol: (§2) To investigate DIHQs toxin production inhibitory activity, toxin A and toxin B levels were measured as described previously. […] An aliquot from each tube was diluted and plated on BHIS agar plates and incubated anaerobically at 37° C. for 24 hours to detect the bacterial count. The total concentration of C. difficile toxin A and B was measured in the supernatant of each tube using enzyme linked immunosorbent assay (ELISA) kit (tgc BIOMICS, Dunwoody, GA) following the manufacturer's instructions. The (OD450-OD620) values, corresponding to the toxin concentration, were measured for DIHQ and control drugs.

[4] = tested on: C. difficile ATCC BAA-1870; experiment: Toxin A and B production inhibition, ELISA; conditions: for inhibition of total toxin production: 8 hours
Protocol: as §2

C. difficile NR-49277 [5] = experiment: Toxin A and B production inhibition, ELISA; conditions: for inhibition of total toxin production: 8 hours
Protocol: as §2

C. difficile ATCC 43255 [6] = experiment: Initial screening of antiparasitic drugs, broth microdilution MIC; conditions: Clostridioides difficile, ATCC43255; initial screening, C. difficile ATCC 43255; read-out: MIC
Protocol: C. difficile strains were grown anaerobically on brain heart infusion supplemented (BHIS) agar plates at 37° C. for 48 hours. Afterwards, a bacterial solution equivalent to 0.5 McFarland standard was prepared and diluted in (BHIS) broth to achieve a bacterial concentration of about 5×10^5 CFU/mL. Drugs were added and serially diluted along the plates. Plates were then, incubated anaerobically at 37° C. for 48 hours. MICs reported in Table (1) are the minimum concentrations of the drugs that could completely suppress the visual growth of bacteria.

Structure (SMILES): CCc1c(Cl)c(O)c(Cl)c(O)c1C(=O)O[C@H]1[C@H](O)[C@H](OC)[C@H](OC/C2=C\C=C\C[C@H](O)/C(C)=C/[C@H](CC)[C@@H](O[C@@H]3OC(C)(C)[C@@H](OC(=O)C(C)C)[C@H](O)[C@@H]3O)/C(C)=C/C(C)=C/C[C@@H]([C@@H](C)O)OC2=O)O[C@@H]1C [Fidaxomicin, fidaxomicin]
- MBC (C. difficile ATCC 43598; read-out: MBC): 0.015 µg/mL (≈ 0.0142 µM)
- MIC (C. difficile ATCC 43598; read-out: MIC): 0.015 µg/mL (≈ 0.0142 µM)
- MBC (C. difficile ATCC 700057; read-out: MBC): 0.007 µg/mL (≈ 0.00662 µM)
- MIC (C. difficile ATCC 700057; read-out: MIC): 0.007 µg/mL (≈ 0.00662 µM)
- MBC (C. difficile ATCC 9689): 0.03 µg/mL (≈ 0.0284 µM)
- MIC (C. difficile ATCC 9689; read-out: MIC): 0.03 µg/mL (≈ 0.0284 µM)
- MBC ([1]; read-out: MBC): 0.03 µg/mL (≈ 0.0284 µM)
- MIC ([1]; read-out: MIC): 0.03 µg/mL (≈ 0.0284 µM)
- MBC (C. difficile HM-89; read-out: MBC): 0.03 µg/mL (≈ 0.0284 µM)
- MIC (C. difficile HM-89; read-out: MIC): 0.03 µg/mL (≈ 0.0284 µM)
- MBC (C. difficile I1; read-out: MBC): 0.007 µg/mL (≈ 0.00662 µM)
- MIC (C. difficile I1; read-out: MIC): 0.007 µg/mL (≈ 0.00662 µM)
- MBC (C. difficile I2; read-out: MBC): 0.007 µg/mL (≈ 0.00662 µM)
- MIC (C. difficile I2; read-out: MIC): 0.007 µg/mL (≈ 0.00662 µM)
- MBC (C. difficile I4; read-out: MBC): 0.015 µg/mL (≈ 0.0142 µM)
- MIC (C. difficile I4; read-out: MIC): 0.015 µg/mL (≈ 0.0142 µM)
- MBC (C. difficile NR-49277 [2]; read-out: MBC): 0.03 µg/mL (≈ 0.0284 µM)
- MIC (C. difficile NR-49277 [2]; read-out: MIC): 0.03 µg/mL (≈ 0.0284 µM)
- MBC (C. difficile NR-49281; read-out: MBC): 0.007 µg/mL (≈ 0.00662 µM)
- MIC (C. difficile NR-49281; read-out: MIC): 0.007 µg/mL (≈ 0.00662 µM)
- MBC (C. difficile NR-49284; read-out: MBC): 0.015 µg/mL (≈ 0.0142 µM)
- MIC (C. difficile NR-49284; read-out: MIC): 0.015 µg/mL (≈ 0.0142 µM)
- MBC (C. difficile NR-49286; read-out: MBC): 0.015 µg/mL (≈ 0.0142 µM)
- MIC (C. difficile NR-49286; read-out: MIC): 0.007 µg/mL (≈ 0.00662 µM)
- MBC (C. difficile NR-49290): 0.015 µg/mL (≈ 0.0142 µM)
- MIC (C. difficile NR-49290; read-out: MIC): 0.015 µg/mL (≈ 0.0142 µM)
- MBC (C. difficile P11): 0.03 µg/mL (≈ 0.0284 µM)
- MIC (C. difficile P11; read-out: MIC): 0.03 µg/mL (≈ 0.0284 µM)
- MBC (C. difficile P13): 0.015 µg/mL (≈ 0.0142 µM)
- MIC (C. difficile P13; read-out: MIC): 0.015 µg/mL (≈ 0.0142 µM)
- MBC (C. difficile P1; read-out: MBC): 0.007 µg/mL (≈ 0.00662 µM)
- MIC (C. difficile P1; read-out: MIC): 0.003 µg/mL (≈ 0.00284 µM)
- MBC (C. difficile P24): 0.03 µg/mL (≈ 0.0284 µM)
- MIC (C. difficile P24; read-out: MIC): 0.015 µg/mL (≈ 0.0142 µM)
- MBC (C. difficile P2): 0.03 µg/mL (≈ 0.0284 µM)
- MIC (C. difficile P2; read-out: MIC): 0.03 µg/mL (≈ 0.0284 µM)
- MBC (C. difficile P7; read-out: MBC): 0.06 µg/mL (≈ 0.0567 µM)
- MIC (C. difficile P7; read-out: MIC): 0.06 µg/mL (≈ 0.0567 µM)
- MBC (C. difficile P8; read-out: MBC): 0.015 µg/mL (≈ 0.0142 µM)
- MIC (C. difficile P8; read-out: MIC): 0.015 µg/mL (≈ 0.0142 µM)
- inhibition of total toxin production (C. difficile ATCC 43255 [3]; C. difficile ATCC 43255, ¼×MIC): 14.3%
- inhibition of total toxin production (C. difficile ATCC 43255 [3]; C. difficile ATCC 43255, ½×MIC): 37%
- inhibition of total toxin production ([4]; C. difficile ATCC BAA-1870, ¼×MIC): 31.9%
- inhibition of total toxin production ([4]; C. difficile ATCC BAA-1870, ½×MIC): 46.2%
- inhibition of total toxin production (C. difficile NR-49277 [5]; C. difficile NR-49277, ¼×MIC): 58.8%
- inhibition of total toxin production (C. difficile NR-49277 [5]; C. difficile NR-49277, ½×MIC): 67.4%

Structure (SMILES): Cc1ncc([N+](=O)[O-])n1CCO [Metronidazole, metronidazole]
- MIC (C. difficile ATCC 43255 [6]): 0.25 µg/mL (≈ 1.46 µM)
- MBC (C. difficile ATCC 9689): 0.25 µg/mL (≈ 1.46 µM)
- MBC (C. difficile NR-49290): 0.25 µg/mL (≈ 1.46 µM)
- MBC (C. difficile P11): 0.25 µg/mL (≈ 1.46 µM)
- MBC (C. difficile P13): 0.25 µg/mL (≈ 1.46 µM)
- MBC (C. difficile P24): 0.25 µg/mL (≈ 1.46 µM)
- MBC (C. difficile P2): 0.25 µg/mL (≈ 1.46 µM)
- toxin inhibition (in words) (C. difficile ATCC 43255 [3]; C. difficile ATCC 43255, ¼×MIC and ½×MIC): No toxin inhibition
- toxin inhibition (in words) ([4]; C. difficile ATCC BAA-1870, ¼×MIC and ½×MIC): No toxin inhibition
- toxin inhibition (in words) (C. difficile NR-49277 [5]; C. difficile NR-49277, ¼×MIC and ½×MIC): No toxin inhibition
